# Assay: MTT colorimetric assay, dose response, cell viability
# Type: cell-based
# Settings: human, HaCat cells, untreated = 100
# Protocol: An MTT colorimetric assay (HaCat Cells) dose response experiment was conducted to analyze cell viability, or the percentage of cells present after treatment. Particularly, the MTT colorimetric assay was conducted to determine cell viability of the anhydrous 2:1 urea to taurine ionic liquid (2) of Example 1 in comparison to taurine. The HaCat Cells were 60-70% confluent, and a PBS buffer was used for serial volumetric dilutions. The results of the MTT colorimetric assay are summarized in Table 6, and highlight the effectiveness of the ionic liquid form. Cell viability greater than 100% indicates cell growth or proliferation, and cell viability less than 100% indicates cell death.
smiles,measurement,setting,value
"NCCS(=O)(=O)O [Taurine, 2-aminoethanesulfonic acid]",viability at 1e-05 w/w %,concentration of taurine 0.00001 w/w %,137%
same,viability at 0.0001 w/w %,concentration of taurine 0.00010 w/w %,120%
same,viability at 0.001 w/w %,concentration of taurine 0.00100 w/w %,141%
same,viability at 0.01 w/w %,concentration of taurine 0.01000 w/w %,147%
same,viability at 0.1 w/w %,concentration of taurine 0.10000 w/w %,99%

# Reference: patent US11111463B2, “Solid cleansing compositions with taurine and methods thereof” (Colgate-Palmolive Company, priority 2016, dated 2021)
